The source of these data is PMC3062577, “Purification and biochemical properties of a cytochrome bc complex from the aerobic hyperthermophilic archaeon Aeropyrum pernix” (BMC Microbiology, 2011).

Molecules are shown by their SMILES.

One experiment addresses T1, cytochrome oa3 oxidase (Aeropyrum pernix, UniProt Q9YDX6+Q9YDX7).
T1 construct: gene aoxB; native, partially purified from A. pernix K1 membranes in DDM; 140 kDa on BN-PAGE; bands 74, 40 and 25 kDa (25 kDa = cytochrome c553); assigned to AoxA/AoxB by size only; aoxABC = APE_0792.1, APE_0793.1, APE_0795.1
Nature of the experiment: spectrophotometric TMPD oxidation at […] nm. It is filed as biochemical. The following applies: 25 mM TMPD, 0.1 M NaCl, 50 mM NaPi pH 6.5, 40 °C; without added cytochrome c553.

Experiment [1] concerns the target T2, cytochrome c553 complex (cytochrome bc complex) (Aeropyrum pernix, UniProt Q9YB72+Q9YB73+Q9YB78).
T2 construct: gene soxC; native complex purified from A. pernix K1 membranes in DDM; 80 kDa on BN-PAGE; subunits 40, 30 and 25 kDa; only the 25-kDa subunit identified by mass (21,344)
T2 sequence (Q9YB72 1-571): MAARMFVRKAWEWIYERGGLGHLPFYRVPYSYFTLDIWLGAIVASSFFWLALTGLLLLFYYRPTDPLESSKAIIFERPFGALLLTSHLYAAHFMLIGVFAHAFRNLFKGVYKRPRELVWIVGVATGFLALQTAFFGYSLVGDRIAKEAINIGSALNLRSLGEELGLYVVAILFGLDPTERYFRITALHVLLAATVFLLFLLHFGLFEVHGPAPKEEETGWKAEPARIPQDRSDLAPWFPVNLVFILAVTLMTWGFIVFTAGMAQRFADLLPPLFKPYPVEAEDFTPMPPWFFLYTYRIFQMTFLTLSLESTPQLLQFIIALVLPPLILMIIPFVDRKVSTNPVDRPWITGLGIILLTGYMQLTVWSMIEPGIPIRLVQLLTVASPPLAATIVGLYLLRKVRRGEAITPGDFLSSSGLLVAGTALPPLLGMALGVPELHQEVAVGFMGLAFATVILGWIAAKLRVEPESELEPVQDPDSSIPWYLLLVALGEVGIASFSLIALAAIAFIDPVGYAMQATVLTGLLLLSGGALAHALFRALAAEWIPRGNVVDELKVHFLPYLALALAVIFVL
T2 sequence (Q9YB73 34-265): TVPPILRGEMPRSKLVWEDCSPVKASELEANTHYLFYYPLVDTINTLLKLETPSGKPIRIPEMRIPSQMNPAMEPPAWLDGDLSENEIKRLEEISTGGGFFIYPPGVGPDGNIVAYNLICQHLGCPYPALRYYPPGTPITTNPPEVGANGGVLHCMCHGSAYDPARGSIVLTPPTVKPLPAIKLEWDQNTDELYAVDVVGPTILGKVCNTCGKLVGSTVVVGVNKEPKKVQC
T2 sequence (Q9YB78 1-190): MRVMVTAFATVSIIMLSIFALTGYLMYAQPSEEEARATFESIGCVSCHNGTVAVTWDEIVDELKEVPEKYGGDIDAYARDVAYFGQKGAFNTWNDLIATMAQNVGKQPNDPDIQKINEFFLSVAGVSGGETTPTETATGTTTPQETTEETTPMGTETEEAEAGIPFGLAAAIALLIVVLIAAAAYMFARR
The experiment is described as follows: spectrophotometric menaquinol oxidation / yeast cytochrome c reduction. It is filed as biochemical. Conditions: acceptor yeast cytochrome c; pH 7.0, 40 °C, 0.2 mM menaquinol-1 (menaquinol oxidase assay); 0.1% DDM.

T1 sequence (Q9YDX6 whole entry): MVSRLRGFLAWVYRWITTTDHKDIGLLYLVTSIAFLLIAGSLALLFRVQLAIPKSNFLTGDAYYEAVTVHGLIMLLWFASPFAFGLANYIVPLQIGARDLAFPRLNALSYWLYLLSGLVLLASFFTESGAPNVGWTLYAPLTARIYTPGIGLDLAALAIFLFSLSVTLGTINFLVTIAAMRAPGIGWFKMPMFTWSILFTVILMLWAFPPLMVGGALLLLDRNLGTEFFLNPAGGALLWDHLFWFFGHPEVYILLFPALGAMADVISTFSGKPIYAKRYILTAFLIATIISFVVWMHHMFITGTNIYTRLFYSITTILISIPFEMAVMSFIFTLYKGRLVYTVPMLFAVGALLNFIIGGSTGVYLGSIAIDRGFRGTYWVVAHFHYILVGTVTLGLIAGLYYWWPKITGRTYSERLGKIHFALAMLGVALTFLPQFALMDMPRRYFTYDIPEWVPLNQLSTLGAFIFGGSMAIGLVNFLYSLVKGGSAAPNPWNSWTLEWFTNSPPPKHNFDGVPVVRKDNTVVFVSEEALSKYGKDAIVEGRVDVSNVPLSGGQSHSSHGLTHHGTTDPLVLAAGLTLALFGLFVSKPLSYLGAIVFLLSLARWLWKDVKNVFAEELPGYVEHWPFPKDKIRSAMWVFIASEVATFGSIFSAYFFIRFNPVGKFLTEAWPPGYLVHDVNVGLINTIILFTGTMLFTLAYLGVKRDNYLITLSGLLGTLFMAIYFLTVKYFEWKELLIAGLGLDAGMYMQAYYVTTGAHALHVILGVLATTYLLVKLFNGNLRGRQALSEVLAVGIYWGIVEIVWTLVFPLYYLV
T1 sequence (Q9YDX7 whole entry): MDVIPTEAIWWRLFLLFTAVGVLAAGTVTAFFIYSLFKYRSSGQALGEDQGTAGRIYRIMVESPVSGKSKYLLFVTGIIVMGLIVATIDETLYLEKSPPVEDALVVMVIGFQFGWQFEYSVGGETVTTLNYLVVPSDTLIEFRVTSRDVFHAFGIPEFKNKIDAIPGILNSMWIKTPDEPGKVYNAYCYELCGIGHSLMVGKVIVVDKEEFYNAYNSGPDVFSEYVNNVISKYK
T1 sequence (Q9YDX4 whole entry partner): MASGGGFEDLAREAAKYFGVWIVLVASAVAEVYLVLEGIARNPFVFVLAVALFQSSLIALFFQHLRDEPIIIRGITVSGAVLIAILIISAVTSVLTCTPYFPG

Regarding `CN(C)c1ccc(N(C)C)cc1` [TMPD, N,N,N',N'-tetramethyl-p-phenylenediamine], the “spectrophotometric TMPD oxidation at 562 nm” value on cytochrome oa3 oxidase is “The isolated cytochrome oa3 oxidase had TMPD and yeast cytochrome c oxidation activity”.
In the case of `CC(C)=CCc1c(C)c(O)c2ccccc2c1O` [menaquinol-1], the “spectrophotometric menaquinol oxidation / yeast cytochrome c reduction” value in experiment [1] is “cytochrome c553 oxidized menaquinol and reduced yeast cytochrome c”.
